For this series the following is noted: nicotine used in the experiments. The procedure:
Mixtures were prepared of 10%, 20% and 50% by weight of nicotine on Florite® PS-200 grade and on Florite® R-grade.

Take `CN1CCCC1c1cccnc1` (stereo not shown) [nicotine]: the “starting level of impurity myosmine” value is listed as 0.14%.

The values above are taken from patent US12708136B2, “Supported nicotine composition” (priority 2021, dated 2026).
